# Key:
# [1] = target: T1, recombinant human 17β-HSD1 (Homo sapiens, UniProt P14061); experiment: Inhibition of recombinant human 17β-HSD1; type: biochemical; conditions: inhibitor at 1 μM; 30 nM estrone, 1 mM NADPH, 30 min at RT; read-out: 17β-HDS1 Inhibition % at 1 μM
# T1 construct: made in house; host or cells: Sd9 (Sf9) insect cells, baculovirus (Bac to Bac Expression System)
# T1 sequence (P14061 1-328): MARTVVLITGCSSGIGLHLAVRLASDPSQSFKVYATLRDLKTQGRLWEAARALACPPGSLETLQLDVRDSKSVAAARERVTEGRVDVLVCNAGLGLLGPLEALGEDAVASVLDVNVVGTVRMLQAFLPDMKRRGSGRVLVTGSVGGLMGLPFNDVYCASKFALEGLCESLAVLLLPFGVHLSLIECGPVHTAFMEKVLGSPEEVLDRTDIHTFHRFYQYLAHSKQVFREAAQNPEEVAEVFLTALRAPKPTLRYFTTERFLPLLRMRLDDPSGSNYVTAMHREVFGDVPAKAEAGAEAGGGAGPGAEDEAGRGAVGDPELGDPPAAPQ
# Method in brief: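 Microsomal enzyme from baculovirus-infected insect cells (1 μg/ml) incubated 30 min at RT in 20 mM KH2PO4 pH 7.4 with 30 nM ³H-estrone and 1 mM NADPH, inhibitor at 1 μM or 0.1 μM, 1% DMSO. TCA-stopped; estrone/estradiol separated by radio-HPLC; % inhibition = 100 − % conversion.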
# [2] = target: T2, recombinant human 17β-HSD2 (Homo sapiens, UniProt P37059); experiment: Inhibition of recombinant human 17β-HSD2; type: biochemical; conditions: inhibitor at 1 μM; 50 nM estradiol, 1 mM NADH, 30 min at RT; read-out: 17β-HSD2 Inhibition % at 1 μM
# T2 construct: made in house; host or cells: Sd9 (Sf9) insect cells, baculovirus (Bac to Bac Expression System)
# T2 sequence (P37059 1-387): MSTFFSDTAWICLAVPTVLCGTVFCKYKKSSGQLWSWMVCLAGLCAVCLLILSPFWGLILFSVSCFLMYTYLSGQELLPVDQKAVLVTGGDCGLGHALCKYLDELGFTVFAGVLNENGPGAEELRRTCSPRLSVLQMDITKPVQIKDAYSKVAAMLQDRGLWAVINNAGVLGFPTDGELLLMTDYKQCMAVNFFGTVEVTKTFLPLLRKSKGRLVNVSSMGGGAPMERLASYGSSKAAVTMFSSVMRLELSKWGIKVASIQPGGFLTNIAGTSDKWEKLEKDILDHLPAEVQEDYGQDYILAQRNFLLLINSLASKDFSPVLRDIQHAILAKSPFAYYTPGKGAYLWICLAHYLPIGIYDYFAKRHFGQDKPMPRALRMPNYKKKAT
# Method in brief: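 Membrane extract of baculovirus-expressed enzyme in Sf9 cells (4 μg/ml) incubated in 20 mM KH2PO4 pH 8.5 with 50 nM estradiol (³H-tracer) and 1 mM NADH, 30 min at RT, 1% DMSO, inhibitor at 1 μM or 0.1 μM. TCA-stopped; estradiol-to-estrone conversion by radio-HPLC; % inhibition = 100 − % conversion.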
structure (smiles),measurement,setting,value
"Cc1cnc(NC(=O)CC[C@@H]2CC(=O)[C@@]3(C)CCC4c5cc(F)c(O)cc5CCC4C23)s1 (stereo partly drawn) [Compound 67, 3-((13S,15R)-2-fluoro-3-hydroxy-13-methyl-17-oxo-7,8,9,11,12,13,14,15,16,17-decahydro-6H-cyclopenta[a]phenanthren-15-yl)-N-(5-methylthiazol-2-yl)propanamide]",inhibition at 1 µM,[1],98%
same,inhibition at 1 µM,[2],6%
"Cc1cnc(NC(=O)CC[C@@H]2CC(=O)[C@@]3(C)CCC4c5cc(O)c(O)cc5CCC4C23)s1 (stereo partly drawn) [Compound 68, 3-((13S,15R)-2,3-dihydroxy-13-methyl-17-oxo-7,8,9,11,12,13,14,15,16,17-decahydro-6H-cyclopenta[a]phenanthren-15-yl)-N-(5-methylthiazol-2-yl)propanamide]",inhibition at 1 µM,[1],88%
same,inhibition at 1 µM,[2],3%
"CC(=O)Oc1cc2c(cc1F)C1CC[C@]3(C)C(=O)C[C@@H](CCC(=O)Nc4ncc(C)s4)C3C1CC2 (stereo partly drawn) [Compound 69, (13S,15R)-2-fluoro-13-methyl-15-(3-((5-methylthiazol-2-yl)amino)-3-oxopropyl)-17-oxo-7,8,9,11,12,13,14,15,16,17-decahydro-6H-cyclopenta[a]phenanthren-3-yl acetate]",inhibition at 1 µM,[1],57%
same,inhibition at 1 µM,[2],4%
"Cc1cnc(NC(=O)CC[C@@H]2CC(=O)[C@@]3(C)CCC4c5cc(Br)c(O)c(F)c5CCC4C23)s1 (stereo partly drawn) [Compound 71, 3-((13S,15R)-2-bromo-4-fluoro-3-hydroxy-13-methyl-17-oxo-7,8,9,11,12,13,14,15,16,17-decahydro-6H-cyclopenta[a]phenanthren-15-yl)-N-(5-methylthiazol-2-yl)propanamide]",inhibition at 1 µM,[1],91%
same,inhibition at 1 µM,[2],7%
"Cc1cnc(NC(=O)CC[C@@H]2CC(=O)[C@@]3(C)CCC4c5cc(F)c(O)c(Br)c5CCC4C23)s1 (stereo partly drawn) [Compound 72, 3-((13S,15R)-4-bromo-2-fluoro-3-hydroxy-13-methyl-17-oxo-7,8,9,11,12,13,14,15,16,17-decahydro-6H-cyclopenta[a]phenanthren-15-yl)-N-(5-methylthiazol-2-yl)propanamide]",inhibition at 1 µM,[1],89%
same,inhibition at 1 µM,[2],10%
"Cc1cnc(NC(=O)CC[C@@H]2CC(=O)[C@@]3(C)CCC4c5cc([N+](=O)[O-])c(O)c(F)c5CCC4C23)s1 (stereo partly drawn) [Compound 73, 3-((13S,15R)-4-fluoro-3-hydroxy-13-methyl-2-nitro-17-oxo-7,8,9,11,12,13,14,15,16,17-decahydro-6H-cyclopenta[a]phenanthren-15-yl)-N-(5-methylthiazol-2-yl)propanamide]",inhibition at 1 µM,[1],90%
same,inhibition at 1 µM,[2],2%
"Cc1cnc(NC(=O)CC[C@@H]2CC(=O)[C@@]3(C)CCC4c5cc([N+](=O)[O-])c(O)c(Cl)c5CCC4C23)s1 (stereo partly drawn) [Compound 75, 3-((13S,15R)-4-chloro-3-hydroxy-13-methyl-2-nitro-17-oxo-7,8,9,11,12,13,14,15,16,17-decahydro-6H-cyclopenta[a]phenanthren-15-yl)-N-(5-methylthiazol-2-yl)propanamide]",inhibition at 1 µM,[1],89%
same,inhibition at 1 µM,[2],2%
"Cc1cnc(NC(=O)CC[C@@H]2CC(=O)[C@@]3(C)CCC4c5cc6ncoc6c(Cl)c5CCC4C23)s1 (stereo partly drawn) [Compound 77, 3-((3R,12aS)-6-chloro-12a-methyl-1-oxo-2,3,3a,3b,4,5,10b,11,12,12a-decahydro-1H-cyclopenta[7,8]phenanthro[3,2-d]oxazol-3-yl)-N-(5-methylthiazol-2-yl)propanamide]",inhibition at 1 µM,[1],87%
same,inhibition at 1 µM,[2],0%
"Cc1cnc(NC(=O)CC[C@@H]2CC(=O)[C@@]3(C)CCC4c5cc6ncoc6c(F)c5CCC4C23)s1 (stereo partly drawn) [Compound 78, 3-((3R,12aS)-6-fluoro-12a-methyl-1-oxo-2,3,3a,3b,4,5,10b,11,12,12a-decahydro-1H-cyclopenta[7,8]phenanthro[3,2-d]oxazol-3-yl)-N-(5-methylthiazol-2-yl)propanamide]",inhibition at 1 µM,[1],91%
same,inhibition at 1 µM,[2],1%
"Cc1cnc(NC(=O)CC[C@@H]2CC(=O)[C@@]3(C)CCC4c5ccc(OS(=O)(=O)C(F)(F)F)cc5CCC4C23)s1 (stereo partly drawn) [Compound 79, (13S,15R)-13-methyl-15-(3-((5-methylthiazol-2-yl)amino)-3-oxopropyl)-17-oxo-7,8,9,11,12,13,14,15,16,17-decahydro-6H-cyclopenta[a]phenanthren-3-yl trifluoromethanesulfonate]",inhibition at 1 µM,[1],72%
same,inhibition at 1 µM,[2],0%
"Cc1cnc(NC(=O)CC[C@@H]2CC(=O)[C@@]3(C)CCC4c5cc([N+](=O)[O-])ccc5CCC4C23)s1 (stereo partly drawn) [Compound 84, 3-((13S,15R)-13-methyl-2-nitro-17-oxo-7,8,9,11,12,13,14,15,16,17-decahydro-6H-cyclopenta[a]phenanthren-15-yl)-N-(5-methylthiazol-2-yl)propanamide]",inhibition at 1 µM,[1],93%
same,inhibition at 1 µM,[2],1%
"Cc1cnc(NC(=O)CC[C@@H]2CC(=O)[C@@]3(C)CCC4c5cccc([N+](=O)[O-])c5CCC4C23)s1 (stereo partly drawn) [Compound 85, 3-((13S,15R)-13-methyl-4-nitro-17-oxo-7,8,9,11,12,13,14,15,16,17-decahydro-6H-cyclopenta[a]phenanthren-15-yl)-N-(5-methylthiazol-2-yl)propanamide]",inhibition at 1 µM,[1],93%
same,inhibition at 1 µM,[2],2%
"Cc1cnc(NC(=O)CC[C@@H]2CC(=O)[C@@]3(C)CCC4c5cc(F)ccc5CCC4C23)s1 (stereo partly drawn) [Compound 86, 3-((13S,15R)-2-fluoro-13-methyl-17-oxo-7,8,9,11,12,13,14,15,16,17-decahydro-6H-cyclopenta[a]phenanthren-15-yl)-N-(5-methylthiazol-2-yl)propanamide]",inhibition at 1 µM,[1],92%
same,inhibition at 1 µM,[2],0%
"Cc1cnc(NC(=O)CC[C@@H]2CC(=O)[C@@]3(C)CCC4c5cc(N)ccc5CCC4C23)s1 (stereo partly drawn) [Compound 87, 3-((13S,15R)-2-amino-13-methyl-17-oxo-7,8,9,11,12,13,14,15,16,17-decahydro-6H-cyclopenta[a]phenanthren-15-yl)-N-(5-methylthiazol-2-yl)propanamide]",inhibition at 1 µM,[1],87%
same,inhibition at 1 µM,[2],2%
"Cc1cnc(NC(=O)CC[C@@H]2CC(=O)[C@@]3(C)CCC4c5cc(O)ccc5CCC4C23)s1 (stereo partly drawn) [Compound 88, 3-((13S,15R)-2-hydroxy-13-methyl-17-oxo-7,8,9,11,12,13,14,15,16,17-decahydro-6H-cyclopenta[a]phenanthren-15-yl)-N-(5-methylthiazol-2-yl)propanamide]",inhibition at 1 µM,[1],93%
same,inhibition at 1 µM,[2],1%
"Cc1cnc(NC(=O)CC[C@@H]2CC(=O)[C@@]3(C)CCC4c5cccc(N)c5CCC4C23)s1 (stereo partly drawn) [Compound 89, 3-((13S,15R)-4-amino-13-methyl-17-oxo-7,8,9,11,12,13,14,15,16,17-decahydro-6H-cyclopenta[a]phenanthren-15-yl)-N-(5-methylthiazol-2-yl)propanamide]",inhibition at 1 µM,[1],71%
same,inhibition at 1 µM,[2],0%
"Cc1cnc(NC(=O)CC[C@@H]2CC(=O)[C@@]3(C)CCC4c5cccc(O)c5CCC4C23)s1 (stereo partly drawn) [Compound 90, 3-((13S,15R)-4-hydroxy-13-methyl-17-oxo-7,8,9,11,12,13,14,15,16,17-decahydro-6H-cyclopenta[a]phenanthren-15-yl)-N-(5-methylthiazol-2-yl)propanamide]",inhibition at 1 µM,[1],94%
same,inhibition at 1 µM,[2],0%

# From US10377791B2, “Therapeutically active estratrienthiazole derivatives as inhibitors of 17 B-hydroxysteroid dehydrogenase, type 1” (FORENDO PHARMA LTD, priority 2013, dated 2019)
